From US20140178327A1, “Antimicrobial Ophthalmic Devices” (CooperVision International Holding Company, LP, priority 2012, published 2014)

What was measured:
Assay type in all cases: cell-based
[1] = tested on: Pseudomonas aeruginosa (PA) ATCC 9027; assay: In vitro bioactivity assay; settings: for log kill εPLL: Formulation F lens autoclaved in 500 ppm εPLL in PBS
Experimental: (§1) Cultures were prepared from growing a single colony of each of the bacterial species shown in Table 3 below in 50 ml. trypticase soy broth (TSB) overnight at 37° C. on a rotary shaker. 1 ml of each culture was centrifuged, and the bacterial pellet resuspended in 1.0 ml of the diluent shown in Table 3, where PBST is 19 mM PBS at pH 7.3 (0.83 wt. % NaCl, 0.03 wt. % sodium phosphate monobasic, and 0.24% sodium phosphate dibasic) with 0.05% Tween. For each bacterial species, a suspension of approximately 10^8CFU/mL was prepared by diluting the bacterial suspension to achieve the optical density indicated in Table 3.
(§2) Each suspension was further diluted to approximately 10^4CFU/mL (low inoculum) or 10^7CFU/mL (high inoculum) using the above diluents to make the bacterial inoculums for testing bioactivity of lenses.
(§3) Each lens was rinsed in 2.5 ml sterile PBS for a few seconds, and transferred into an individual well of a 24-well plate containing 1.0 ml of bacteria inoculum. The plates were incubated at 37° C. with gentle shaking. The original inoculums were incubated for the duration of the experiment to confirm the concentrations at each sample recovery time point. At the time point tested, each lens was removed from its well and transferred to a well of a 12-well plate containing 2.5 mL of sterile PBST. The plate was gently swirled gently for about 30 seconds. This step was repeated once for each lens. Such 2× wash step is referred to herein as the bacterial wash step.
(§4) Each washed lens was placed in a microcentrifuge tube containing 1 ml of Dey-Engley (DE) neutralizing broth and adhered bacteria were removed by a combination of sonication for about 2 minutes and vortexing for about 10 minutes. Serial dilutions were made for each recovered cell suspension using DE neutralizing broth and suitable dilutions were plated onto TSA. Plates were incubated overnight at 37° C. and CFUs were counted.
(§5) The CFU for each plate was multiplied by the dilution factor (DF) as well as the plating dilution factor (PDF). The total CFUs recovered for a given sample were then converted to the log 10. To calculate the log kill of an antimicrobial lens, the log of CFU/lens of the antimicrobial lens is subtracted from that of the control lens. For example, if the mean log 10 value of an antimicrobial lens is 1.05 and the mean log 10 value of an otherwise identical control lens lacking the active antimicrobial agent is 5.52, the log kill is 5.52−1.05=4.47.

[2] = tested on: Serratia marcescens (SM) ATCC 6538; assay: In vitro bioactivity assay; settings: for log kill of SM: ionic silicone hydrogel contact lens with about 10 μg PQ-1 and/or about 200 μg εPLL, 24 hour incubation, 10^7 inoculum; for log kill εPLL: Formulation F lens autoclaved in 500 ppm εPLL in PBS
Experimental: as §1, §2, §3, §4, §5

[3] = tested on: Staphylococcus aureus (SA) ATCC 13880; assay: In vitro bioactivity assay; settings: for log kill of SA: ionic silicone hydrogel contact lens with about 10 μg PQ-1 and/or about 200 μg εPLL, 24 hour incubation, 10^7 inoculum; for log kill εPLL: Formulation F lens autoclaved in 500 ppm εPLL in PBS
Experimental: as §1, §2, §3, §4, §5

[4] = tested on: Pseudomonas aeruginosa (PA) ATCC 9027; assay: In vitro biofilm assay; settings: for Log εPLL (log CFU recovered per εPLL lens): 10^7 CFU/mL, 2 hours adhesion, 24 hours biofilm growth; for Log Reduction: versus control lens
Experimental: (§6) Lenses at the 0 hour time point and from the 168 hour time point were used to test whether they supported biofilm formation. The lenses were rinsed for 5 seconds in 2.5 mL of sterile PBS then transferred into an individual well of a 24-well plate containing 1.0 mL of bacterial inoculum at approximately 10^7CFU/mL, prepared as described in Example 5. The plates were incubated for 2 hours on a 37° C. with gentle rotary agitation. The remaining inoculum, i.e. not incubated with lenses, was also incubated on the shaker for the duration of each experiment to determine the cfu/mL of the inoculum at t=2 hr and t=24 hr. After 2 hours incubation each lens was washed using the bacterial wash step described in Example 5 then placed on an insert of a 24-well plate for biofilm formation as described below. The inoculum concentration (at t=0 hr and 2 hr) was confirmed by serial dilution, plating onto TSA, incubating overnight at 37° C. and colony counting.
(§7) Custom-made mushroom-shaped stainless steel inserts, depicted in FIG. 1, were placed in each well of a 24-well plate. The cap portion of each insert has a diameter of approximately 14 mm and a curvature to match the posterior surface of a contact lens. The height of each insert is approximately 11 mm. One mL of sterile media/diluent was added to each well. Each preloaded, washed lens (as described above) was placed on the top (cap portion) of an insert, convex side up. The dimensions of the inserts and the volume of the media are such that the periphery of the placed lens is in contact with the media/diluent and the center portion of the lens is at the liquid/air interface. Plates were loosely sealed to prevent evaporation, and incubated for 24 hours at 37° C., with rotary agitation. After incubation, each lens was subjected to the bacterial wash step as described in Example 5. Bacteria were recovered from the washed lenses and log kill calculated as described above in Example 5. Each t-24 hr inoculum concentration was confirmed as described above for t=0 and t=2 hr time points.

[5] = tested on: Serratia marcescens (SM) ATCC 6538; assay: In vitro biofilm assay; settings: for Log εPLL (log CFU recovered per εPLL lens): 10^7 CFU/mL, 2 hours adhesion, 24 hours biofilm growth; for Log Reduction: versus control lens
Experimental: as §6, §7

[6] = tested on: Staphylococcus aureus (SA) ATCC 13880; assay: In vitro biofilm assay; settings: for Log εPLL (log CFU recovered per εPLL lens): 10^7 CFU/mL, 2 hours adhesion, 24 hours biofilm growth; for Log Reduction: versus control lens
Experimental: as §6, §7

[7] = Formulation F lenses without εPLL, 72 hours in PBS plus PQ-1, high inoculum (10^7), 24-hour incubation
[8] = SM, Formulation F lenses without εPLL, 72 hours in PBS plus PQ-1, high inoculum (10^7), 24-hour incubation
[9] = SA, Formulation F lenses without εPLL, 72 hours in PBS plus PQ-1, high inoculum (10^7), 24-hour incubation
[10] = lenses packaged in PBS containing 30 μg/ml PQ-1

Substance: polyquarternium-1 [PQ-1]
- log kill 10 μ/ml PQ-1 ([1]; 24 hr, Formulation F lens without εPLL): −0.23
- log kill at 10 μg/ml PQ-1 [1, 7]: −0.23
- log kill at 30 μg/ml PQ-1 [1, 7]: 0.16
- log kill at 100 μg/ml PQ-1 [1, 7]: 3.43
- log kill 10 μ/ml PQ-1 ([2]; SM, 24 hr, Formulation F lens without εPLL): 0.55
- log kill at 10 μg/ml PQ-1 [2, 8]: −0.55
- log kill at 30 μg/ml PQ-1 [2, 8]: 0.55
- log kill at 100 μg/ml PQ-1 [2, 8]: 0.31
- log kill of SM [2]: no significant activity
- log kill 10 μ/ml PQ-1 ([3]; SA, 24 hr, Formulation F lens without εPLL): −0.74
- log kill at 10 μg/ml PQ-1 [3, 9]: −0.54
- log kill at 30 μg/ml PQ-1 [3, 9]: 1.47
- log kill at 100 μg/ml PQ-1 [3, 9]: 3.04
- log kill of SA [3]: no significant activity
- antimicrobial activity in biofilm assay [4, 10]: lack of antimicrobial activity
- antimicrobial activity in biofilm assay [5, 10]: lack of antimicrobial activity

Substance: ε-polylysine [εPLL]
- log kill εPLL ([1]; 2 hr): 2.63
- log kill εPLL ([1]; 6 hr): 4.04
- log kill εPLL ([1]; 24 hr): ≧4.04
- log kill εPLL ([2]; SM, 2 hr): 0.19
- log kill εPLL ([2]; SM, 6 hr): 0.74
- log kill εPLL ([2]; SM, 24 hr): 1.63
- log kill of SM [2]: ~1.5 log
- log kill εPLL ([3]; SA, 2 hr): −0.06
- log kill εPLL ([3]; SA, 6 hr): 0.37
- log kill εPLL ([3]; SA, 24 hr): 1.85
- log kill of SA [3]: ~2 log
- Log εPLL (log CFU recovered per εPLL lens) ([4]; 0 hr wash lenses): 0.9
- Log Reduction ([4]; 0 hr wash lenses): 5.0
- Log εPLL (log CFU recovered per εPLL lens) ([4]; 168 hr wash lenses): 0.6
- Log Reduction ([4]; 168 hr wash lenses): 4.9
- Log εPLL (log CFU recovered per εPLL lens) ([5]; 0 hr wash lenses): 1.0
- Log Reduction ([5]; 0 hr wash lenses): 3.5
- Log εPLL (log CFU recovered per εPLL lens) ([5]; 168 hr wash lenses): 3.8
- Log Reduction ([5]; 168 hr wash lenses): 1.7
- Log εPLL (log CFU recovered per εPLL lens) ([6]; 0 hr wash lenses): 0.8
- Log Reduction ([6]; 0 hr wash lenses): 3.7
- Log εPLL (log CFU recovered per εPLL lens) ([6]; 168 hr wash lenses): 3.1
- Log Reduction ([6]; 168 hr wash lenses): 2.4
